Laboratory results: ChEMBL document CHEMBL4842385, “Indirubin Derivatives as Dual Inhibitors Targeting Cyclin-Dependent Kinase and Histone Deacetylase for Treating Cancer” (J Med Chem, 2021)
The source made the active and inactive calls. No cut-off for these calls is given here.

Assays:
[1] = biological target: Cyclin-dependent kinase 2/4/6 (Homo sapiens) (UniProt P11802+P24941+Q00534); assay: Inhibition of CDK2/4/6 in human A549 cells assessed as decrease in Rb phosphorylation at 10 uM incubated for 24 hrs followed by compound washout by DAPI staining based immunofluorescence assay; type: cell-based
[2] = biological target: NAD-dependent protein deacetylase sirtuin-2 (Homo sapiens, UniProt Q8IXJ6); assay: Inhibition of recombinant human SIRT2 measured after 30 mins by fluorescence microplate reader assay
[3] = biological target: T1, Histone deacetylase 8 (Homo sapiens, UniProt Q9BY41); assay: Inhibition of HDAC8 (unknown origin) measured after 30 mins by fluorescence microplate reader assay
T1 sequence (Q9BY41 whole entry): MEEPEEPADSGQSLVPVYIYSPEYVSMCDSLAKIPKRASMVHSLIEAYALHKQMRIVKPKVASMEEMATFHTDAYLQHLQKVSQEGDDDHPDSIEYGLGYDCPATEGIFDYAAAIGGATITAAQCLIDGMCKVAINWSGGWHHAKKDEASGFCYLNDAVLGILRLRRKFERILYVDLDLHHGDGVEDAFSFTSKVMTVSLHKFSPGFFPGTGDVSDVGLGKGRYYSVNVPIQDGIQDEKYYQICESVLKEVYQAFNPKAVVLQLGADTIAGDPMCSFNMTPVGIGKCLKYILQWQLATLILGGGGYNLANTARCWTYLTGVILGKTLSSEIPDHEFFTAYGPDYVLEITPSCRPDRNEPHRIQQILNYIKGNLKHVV

[4] = system: A549; assay: Antitumor activity against human A549 cells xenografted in BALB/c nude mouse assessed as tumor growth inhibition at 50 mg/kg, iv administered for 21 consecutive days relative to control; type: functional; conditions: 504 h, time 21 day, read-out: TGI
[5] = biological target: Histone deacetylase 5 (Homo sapiens, UniProt Q9UQL6); assay: Inhibition of HDAC5 (unknown origin) measured after 30 mins by fluorescence microplate reader assay
[6] = biological target: Histone deacetylase 3/Nuclear receptor corepressor 2 (HDAC3/NCoR2) (Homo sapiens, UniProt O15379); assay: Inhibition of C-terminal His-tagged recombinant human HDAC3 (1 to 428 residues)/N-terminal GST-tagged recombinant human NCoR2 (395 to 489 residues) co-expressed in baculovirus infected Sf9 cells measured after 30 mins by fluorescence microplate reader assay
[7] = biological target: Histone deacetylase 4 (Homo sapiens, UniProt P56524); assay: Inhibition of HDAC4 (unknown origin) measured after 30 mins by fluorescence microplate reader assay
[8] = system: K562; assay: Induction of apoptosis in human K562 cells assessed as increase in sum of early and late apoptotic cells at 2.5 to 10 uM measured after 48 hrs by Annexin-V/FITC-propidium iodide staining based flow cytometry analysis; type: functional, cell-based; conditions: dose 2.5-10 µM
[9] = biological target: CDK6/cyclin D3 (Homo sapiens, UniProt Q00534); assay: Inhibition of full length human CDK6 (1 to 326 end residues)/N-terminal GST-fusion tagged CyclinD3 (1 to 292 residues) expressed in baculovirus expression system preincubated for 10 mins followed by substrate and ATP addition by mobility shift assay
[10] = biological target: Histone deacetylase 9 (Homo sapiens, UniProt Q9UKV0); assay: Inhibition of recombinant human HDAC9 measured after 30 mins by fluorescence microplate reader assay
[11] = system: HeLa; assay: Antiproliferative activity against human HeLa cells assessed as cell growth inhibition measured after 48 hrs by CCK8 assay; type: functional, cell-based
[12] = system: A549; assay: Antitumor activity against human A549 cells xenografted in BALB/c nude mouse assessed as reduction in tumor volume at 0.75 to 1.5 mg, IT (intratumoral) administered for 21 consecutive days; type: functional, cell-based; conditions: dose 0.75-1.5 mg, time 21.0 day
[13] = Toxicity in BALB/c nude mouse xenografted with human A549 cells assessed as body weight loss at 25 to 50 mg/kg, iv administered for 21 consecutive days; type: organism-based; conditions: in vivo, 504 h, dose 25-50 mg/kg, time 21 day
[14] = system: HeLa; assay: Potency index, ratio of SAHA IC50 to test compound IC50 for antiproliferative activity against human HeLa cells assessed as cell growth inhibition measured after 48 hrs by CCK8 assay; type: functional
[15] = biological target: Protein deacetylase HDAC6 (Mus musculus) (UniProt Q9Z2V5); assay: In vivo inhibition of HDAC6 in BALB/c nude mouse xenografted with human A549 cells assessed as increase in alpha tubulin acetylation at 25 to 50 mg/kg, iv administered for 21 consecutive days by immunohistochemical analysis; type: functional, organism-based; conditions: dose 25-50 mg/kg, time 21.0 day
[16] = system: A549; assay: Induction of apoptosis in human A549 cells assessed as increase in PARP cleavage measured after 48 hrs by Western blot analysis; type: functional, cell-based; conditions: dose 1-10 µM
[17] = system: K562; assay: Antiproliferative activity against human K562 cells assessed as cell growth inhibition measured after 48 hrs by CCK8 assay; type: functional, cell-based; conditions: K562, 48 h
[18] = system: HepG2; assay: Antiproliferative activity against human HepG2 cells assessed as cell growth inhibition measured after 48 hrs by CCK8 assay; type: functional, cell-based; conditions: HepG2, 48 h
[19] = biological target: CDK4/Cyclin D3 (Homo sapiens) (UniProt P11802+P30281); conditions: dose 100.0 nM, time 10.0 min
[20] = system: A549; assay: Antiproliferative activity against human A549 cells assessed as cell growth inhibition measured after 48 hrs by CCK8 assay; type: functional, cell-based; conditions: A549, 48 h
[21] = Toxicity in BALB/c nude mouse xenografted with human A549 cells assessed as adverse effect at 25 to 50 mg/kg, iv administered for 21 consecutive days; type: organism-based; conditions: in vivo, 504 h, dose 25-50 mg/kg, time 21 day
[22] = biological target: CDK4/Cyclin D3 (Homo sapiens, UniProt P11802); assay: Inhibition of full length human CDK4 (1 to 303 residues)/N-terminal GST-fusion tagged CyclinD3 (1 to 292 residues) expressed in baculovirus expression system preincubated for 10 mins followed by substrate and ATP addition by mobility shift assay
[23] = biological target: CDK2/Cyclin A2 (Homo sapiens) (UniProt P24941+P20248); conditions: dose 100.0 nM, time 10.0 min
[24] = biological target: NAD-dependent protein deacylase sirtuin-5, mitochondrial (Homo sapiens, UniProt Q9NXA8); assay: Inhibition of recombinant human SIRT5 measured after 30 mins by fluorescence microplate reader assay
[25] = system: MCF7; assay: Induction of apoptosis in human MCF7 cells measured after 48 hrs by Annexin-V/FITC-propidium iodide staining based flow cytometry analysis; type: functional, cell-based; conditions: dose 2.5-10 µM
[26] = system: A549; assay: Antitumor activity against human A549 cells xenografted in BALB/c nude mouse assessed as reduction in tumor weight at 25 to 50 mg/kg, iv administered for 21 consecutive days; type: functional, organism-based; conditions: dose 25-50 mg/kg, time 21.0 day

Histone deacetylase 4, sequence (P56524 whole entry): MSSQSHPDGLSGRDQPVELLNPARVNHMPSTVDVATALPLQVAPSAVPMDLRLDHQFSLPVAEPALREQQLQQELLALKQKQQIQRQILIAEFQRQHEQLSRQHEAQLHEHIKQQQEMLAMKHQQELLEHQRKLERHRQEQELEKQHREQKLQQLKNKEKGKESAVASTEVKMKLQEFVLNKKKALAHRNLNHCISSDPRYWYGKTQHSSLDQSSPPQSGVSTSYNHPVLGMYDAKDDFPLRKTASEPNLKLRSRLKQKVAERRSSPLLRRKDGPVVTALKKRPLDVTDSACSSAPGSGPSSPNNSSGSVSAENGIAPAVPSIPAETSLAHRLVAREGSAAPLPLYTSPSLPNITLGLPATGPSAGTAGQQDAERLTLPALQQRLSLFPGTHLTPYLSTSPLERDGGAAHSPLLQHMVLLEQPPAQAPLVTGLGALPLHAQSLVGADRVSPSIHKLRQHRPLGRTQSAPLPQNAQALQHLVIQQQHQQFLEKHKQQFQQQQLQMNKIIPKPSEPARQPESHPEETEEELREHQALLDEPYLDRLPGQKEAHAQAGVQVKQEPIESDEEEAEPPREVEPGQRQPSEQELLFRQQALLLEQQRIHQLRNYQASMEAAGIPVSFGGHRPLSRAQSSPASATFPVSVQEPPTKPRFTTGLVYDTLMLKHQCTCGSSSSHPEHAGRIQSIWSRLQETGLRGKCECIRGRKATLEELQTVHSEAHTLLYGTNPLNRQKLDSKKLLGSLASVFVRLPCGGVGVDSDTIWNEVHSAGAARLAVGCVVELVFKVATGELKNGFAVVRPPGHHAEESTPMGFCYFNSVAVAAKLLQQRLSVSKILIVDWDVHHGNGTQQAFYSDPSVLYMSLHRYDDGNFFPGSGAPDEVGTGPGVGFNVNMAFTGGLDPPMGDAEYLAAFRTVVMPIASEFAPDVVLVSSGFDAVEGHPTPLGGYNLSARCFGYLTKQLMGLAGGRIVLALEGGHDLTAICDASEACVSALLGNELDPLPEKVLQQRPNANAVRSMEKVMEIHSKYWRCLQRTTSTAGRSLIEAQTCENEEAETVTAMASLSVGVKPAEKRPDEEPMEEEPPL
CDK6/cyclin D3, sequence (P30281 whole entry, the tested form may be a part): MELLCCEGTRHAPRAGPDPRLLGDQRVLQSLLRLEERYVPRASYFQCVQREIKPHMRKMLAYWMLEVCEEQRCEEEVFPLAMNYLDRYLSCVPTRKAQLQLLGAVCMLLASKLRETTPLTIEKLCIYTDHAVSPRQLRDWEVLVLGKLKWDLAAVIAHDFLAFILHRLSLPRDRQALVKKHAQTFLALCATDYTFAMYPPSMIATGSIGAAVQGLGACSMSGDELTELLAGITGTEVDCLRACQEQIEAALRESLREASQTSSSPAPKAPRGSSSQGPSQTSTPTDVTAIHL
CDK6/cyclin D3, sequence (Q00534 whole entry, the tested form may be a part): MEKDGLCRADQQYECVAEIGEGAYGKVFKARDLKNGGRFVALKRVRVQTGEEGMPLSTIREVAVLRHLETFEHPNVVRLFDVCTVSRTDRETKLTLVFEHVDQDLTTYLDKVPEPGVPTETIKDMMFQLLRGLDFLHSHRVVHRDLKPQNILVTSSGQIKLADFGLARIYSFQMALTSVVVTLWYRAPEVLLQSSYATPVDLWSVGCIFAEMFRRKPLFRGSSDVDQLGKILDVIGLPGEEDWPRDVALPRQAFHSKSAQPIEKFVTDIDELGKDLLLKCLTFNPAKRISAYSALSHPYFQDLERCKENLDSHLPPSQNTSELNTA
Histone deacetylase 3/Nuclear receptor corepressor 2 (HDAC3/NCoR2), sequence (O15379 whole entry, the tested form may be a part): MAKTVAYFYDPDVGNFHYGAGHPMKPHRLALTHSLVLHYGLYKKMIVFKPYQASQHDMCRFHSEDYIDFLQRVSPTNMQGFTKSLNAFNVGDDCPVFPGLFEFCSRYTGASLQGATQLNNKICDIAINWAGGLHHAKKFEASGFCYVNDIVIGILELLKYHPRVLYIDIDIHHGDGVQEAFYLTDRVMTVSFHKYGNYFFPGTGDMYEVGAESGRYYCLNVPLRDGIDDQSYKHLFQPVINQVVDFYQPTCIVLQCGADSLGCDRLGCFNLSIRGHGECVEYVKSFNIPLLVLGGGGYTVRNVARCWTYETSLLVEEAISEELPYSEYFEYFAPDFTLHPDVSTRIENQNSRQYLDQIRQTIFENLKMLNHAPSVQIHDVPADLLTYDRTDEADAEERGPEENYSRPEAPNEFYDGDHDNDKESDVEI
Histone deacetylase 3/Nuclear receptor corepressor 2 (HDAC3/NCoR2), sequence (Q9Y618 whole entry, further chain, the tested form may be a part): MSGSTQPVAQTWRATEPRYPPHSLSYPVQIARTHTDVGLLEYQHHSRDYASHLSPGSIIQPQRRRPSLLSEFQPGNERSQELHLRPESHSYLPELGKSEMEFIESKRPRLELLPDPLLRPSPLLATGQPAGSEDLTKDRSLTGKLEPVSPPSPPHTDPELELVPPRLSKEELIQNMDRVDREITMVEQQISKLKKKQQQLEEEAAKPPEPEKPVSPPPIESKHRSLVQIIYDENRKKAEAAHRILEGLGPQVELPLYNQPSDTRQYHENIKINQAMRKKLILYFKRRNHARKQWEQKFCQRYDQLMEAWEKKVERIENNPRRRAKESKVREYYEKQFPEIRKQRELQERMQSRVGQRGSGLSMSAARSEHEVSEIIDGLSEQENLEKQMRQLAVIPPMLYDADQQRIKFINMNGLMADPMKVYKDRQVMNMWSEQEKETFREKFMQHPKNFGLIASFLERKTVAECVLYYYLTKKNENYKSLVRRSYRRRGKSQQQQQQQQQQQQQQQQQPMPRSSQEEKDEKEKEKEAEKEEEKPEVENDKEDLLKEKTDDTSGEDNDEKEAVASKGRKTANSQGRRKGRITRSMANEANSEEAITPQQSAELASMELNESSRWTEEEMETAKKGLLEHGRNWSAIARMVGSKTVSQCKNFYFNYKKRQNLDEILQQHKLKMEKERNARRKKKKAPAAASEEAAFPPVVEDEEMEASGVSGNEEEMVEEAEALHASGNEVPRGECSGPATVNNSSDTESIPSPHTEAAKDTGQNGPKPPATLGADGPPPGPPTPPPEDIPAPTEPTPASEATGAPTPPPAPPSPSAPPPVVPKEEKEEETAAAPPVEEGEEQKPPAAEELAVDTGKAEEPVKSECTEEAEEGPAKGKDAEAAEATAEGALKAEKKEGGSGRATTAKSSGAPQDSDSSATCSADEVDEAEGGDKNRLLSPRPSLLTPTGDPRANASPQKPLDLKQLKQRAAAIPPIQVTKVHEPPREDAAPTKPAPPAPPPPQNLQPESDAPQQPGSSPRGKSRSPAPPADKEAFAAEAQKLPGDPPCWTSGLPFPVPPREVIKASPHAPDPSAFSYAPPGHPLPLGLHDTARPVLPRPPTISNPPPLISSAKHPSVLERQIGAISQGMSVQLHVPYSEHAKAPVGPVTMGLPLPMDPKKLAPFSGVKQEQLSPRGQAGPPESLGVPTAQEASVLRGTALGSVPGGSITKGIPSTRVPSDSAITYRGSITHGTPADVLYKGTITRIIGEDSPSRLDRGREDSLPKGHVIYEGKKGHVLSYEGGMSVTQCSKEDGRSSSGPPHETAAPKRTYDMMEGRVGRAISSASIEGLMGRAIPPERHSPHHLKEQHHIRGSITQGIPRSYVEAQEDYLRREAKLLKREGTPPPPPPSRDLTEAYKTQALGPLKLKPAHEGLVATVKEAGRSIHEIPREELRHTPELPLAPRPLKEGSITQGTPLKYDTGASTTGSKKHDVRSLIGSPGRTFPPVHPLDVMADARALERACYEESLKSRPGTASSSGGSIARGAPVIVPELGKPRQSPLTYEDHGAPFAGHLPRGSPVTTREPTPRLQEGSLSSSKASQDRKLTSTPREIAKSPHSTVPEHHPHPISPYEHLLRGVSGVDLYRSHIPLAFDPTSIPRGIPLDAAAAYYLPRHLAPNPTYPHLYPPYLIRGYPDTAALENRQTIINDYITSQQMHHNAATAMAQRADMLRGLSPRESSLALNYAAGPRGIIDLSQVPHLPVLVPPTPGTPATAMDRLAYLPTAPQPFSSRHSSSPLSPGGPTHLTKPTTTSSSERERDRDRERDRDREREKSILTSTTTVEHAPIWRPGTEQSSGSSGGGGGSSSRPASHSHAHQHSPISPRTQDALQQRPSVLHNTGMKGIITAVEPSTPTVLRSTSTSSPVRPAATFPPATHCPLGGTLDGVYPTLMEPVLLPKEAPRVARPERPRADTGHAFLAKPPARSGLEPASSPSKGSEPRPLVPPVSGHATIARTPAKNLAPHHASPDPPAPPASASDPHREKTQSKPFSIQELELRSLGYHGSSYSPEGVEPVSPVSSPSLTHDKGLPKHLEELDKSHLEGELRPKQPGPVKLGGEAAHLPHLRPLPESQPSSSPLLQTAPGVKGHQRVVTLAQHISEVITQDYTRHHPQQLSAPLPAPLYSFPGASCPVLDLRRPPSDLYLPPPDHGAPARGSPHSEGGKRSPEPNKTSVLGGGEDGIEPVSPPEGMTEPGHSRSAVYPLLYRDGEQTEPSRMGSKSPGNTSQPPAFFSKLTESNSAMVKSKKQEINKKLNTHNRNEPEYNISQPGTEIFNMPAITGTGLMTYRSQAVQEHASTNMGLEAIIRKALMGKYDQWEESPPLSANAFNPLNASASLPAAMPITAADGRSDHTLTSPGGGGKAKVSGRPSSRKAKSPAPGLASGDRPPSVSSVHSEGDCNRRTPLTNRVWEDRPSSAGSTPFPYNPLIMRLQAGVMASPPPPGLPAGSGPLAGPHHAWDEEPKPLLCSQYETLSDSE
NAD-dependent protein deacylase sirtuin-5, mitochondrial, sequence (Q9NXA8 whole entry): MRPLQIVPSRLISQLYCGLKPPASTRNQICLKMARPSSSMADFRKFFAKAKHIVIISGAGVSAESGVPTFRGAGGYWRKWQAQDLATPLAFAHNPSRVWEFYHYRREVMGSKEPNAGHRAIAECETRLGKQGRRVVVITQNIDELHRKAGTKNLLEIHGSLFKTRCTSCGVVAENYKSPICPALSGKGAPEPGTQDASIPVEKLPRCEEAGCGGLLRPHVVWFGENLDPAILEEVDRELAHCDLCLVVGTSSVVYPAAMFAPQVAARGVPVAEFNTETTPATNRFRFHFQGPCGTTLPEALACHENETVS

O=C(CCCO/N=C1/C(=C2/C(=O)Nc3ccccc32)Nc2ccccc21)NO
inhibition [1]: Active | IC50 [2]: > 100 µM | IC50 [3]: > 5 µM | inhibition in vivo at 50 mg/kg [4]: 66.6% | IC50 [5]: > 5 µM | IC50 [6]: > 5 µM | IC50 [7]: > 5 µM | Activity [8]: Active | IC50 [9]: 0.0272 µM | IC50 [10]: > 5 µM | IC50 [11]: 0.8 µM | Activity [12]: Active | Activity [13]: Non-Toxic | Ratio IC50 [14]: 3 | inhibition [15]: Active | Activity [16]: Dose-Dependent Effect | IC50 [17]: 2.5 µM | IC50 [18]: 5.7 µM | inhibition [19]: 30.2% | IC50 [20]: 2 µM | Activity [21]: Non-Toxic | IC50 [22]: 0.276 µM | inhibition [23]: 66.8% | IC50 [24]: > 100 µM | Activity [25]: Dose-Dependent Effect | Activity [26]: Active

O=C(O)CCCO/N=C1/C(=C2/C(=O)Nc3ccccc32)Nc2ccccc21
IC50 [2]: > 100 µM | IC50 [3]: > 5 µM | IC50 [5]: > 5 µM | IC50 [6]: > 5 µM | IC50 [7]: > 5 µM | IC50 [9]: 0.0682 µM | IC50 [10]: > 5 µM | IC50 [11]: > 10 µM | IC50 [17]: > 10 µM | IC50 [18]: > 10 µM | IC50 [20]: > 10 µM | inhibition [23]: 34.9% | IC50 [24]: > 100 µM

C#CCN1C(=O)/C(=C2\Nc3ccccc3\C2=N/OCCCC(=O)NO)c2ccccc21
IC50 [3]: > 5 µM | IC50 [6]: > 100 µM | IC50 [7]: > 100 µM | IC50 [9]: > 1 µM | inhibition [19]: 3.9% | IC50 [22]: > 1 µM | inhibition [23]: 4.5%
